Test results as given in the CheMixHub viscosity set.

Assay: xn = mol fraction of the nth substance listed
Settings: 101 kPa

C=C(C)C(=O)OCCCC + CC#N
viscosity [mPa·s]
Settings | 298.15 K | 303.15 K | 308.15 K | 313.15 K | 318.15 K
x2 = 0.0681 | 0.8436 | 0.7784 | 0.7223 | 0.6777 | 0.6423
x2 = 0.1359 | 0.8101 | 0.7487 | 0.6958 | 0.6537 | 0.6202
x2 = 0.1976 | 0.7793 | 0.7213 | 0.6713 | 0.6314 | 0.5995
x2 = 0.2728 | 0.7411 | 0.6872 | 0.6407 | 0.6035 | 0.5735
x2 = 0.3442 | 0.7043 | 0.6543 | 0.6111 | 0.5764 | 0.5483
x2 = 0.4143 | 0.6677 | 0.6215 | 0.5815 | 0.5492 | 0.5229
x2 = 0.4658 | 0.6405 | 0.5971 | 0.5594 | 0.5289 | 0.5039
x2 = 0.5243 | 0.6094 | 0.5691 | 0.534 | 0.5055 | 0.482
x2 = 0.5649 | 0.5876 | 0.5495 | 0.5162 | 0.4891 | 0.4665
x2 = 0.639 | 0.5475 | 0.5133 | 0.4834 | 0.4587 | 0.4379
x2 = 0.7112 | 0.508 | 0.4776 | 0.4508 | 0.4285 | 0.4095
x2 = 0.7836 | 0.468 | 0.4413 | 0.4178 | 0.3978 | 0.3805
x2 = 0.8558 | 0.4277 | 0.4048 | 0.3844 | 0.3668 | 0.3512
x2 = 0.928 | 0.3871 | 0.3679 | 0.3506 | 0.3353 | 0.3214
